Values after ≈ are worked out from the molar mass of the structure shown. Where two headings read alike, the source gives them in different places.
How the values were obtained:
Test in all cases: MIC, microdilution broth method
PA01 = assay type: cell-based, Pseudomonas aeruginosa; conditions: PA01, in µg/mL
VRE12204 = assay type: cell-based, Enterococcus faecium; conditions: in µg/mL; for MIC: VRE12204
MSSA9144 = assay type: cell-based, Staphylococcus aureus
M6 = assay type: cell-based
VSE775 = assay type: cell-based, Enterococcus faecalis; parameters: MIC, VSE775: unit not given beside the values
Ab17978 = assay type: cell-based
VRE12201 = assay type: cell-based, Enterococcus faecalis
EMRSA15 = assay type: cell-based, Staphylococcus aureus
EMRSA16 = assay type: cell-based, Staphylococcus aureus
KP13368 = assay type: cell-based
EC12923 = assay type: cell-based
[1] = Ab17978, Normal (no PMBN), in µg/mL
[2] = KP13368, Normal (no PMBN), in µg/mL
[3] = ESKAPE panel, Gram-negative, in µg/mL
[4] = ESKAPE panel, Gram-positive, in µg/mL

| Compound | MIC (PA01; Normal (no PMBN)) | MIC (VRE12204) | MIC (MSSA9144; MSSA9144, in µg/mL) | MIC (M6; M6, Normal (no PMBN), in µg/mL) | MIC (VSE775; VSE775, in µg/mL) | MIC (Ab17978; [1]) | MIC (VRE12201; VRE12201, in µg/mL) | MIC (EMRSA15; EMRSA15, in µg/mL) | MIC (EMRSA16; EMRSA16, in µg/mL) | MIC (KP13368; [2]) | further results |
| --- | --- | --- | --- | --- | --- | --- | --- | --- | --- | --- | --- |
| CCn1cc(C(=O)O)c(=O)c2cc(F)c(N3CCN(Cc4cccc5c4OCO5)CC3)cc21 [ML-77-035] | 64-128 | 8 | 0.5 | 8-16 | 8 | 2-4 | 4 | >32 | >32 |  |  |
| CCn1cc(C(=O)O)c(=O)c2cc(F)c(N3CCN(Cc4ccccc4)CC3)cc21 [ML-77-047] | 32 | 4 | 0.25 | 4 | 4 | 1-16 | 2 | 16 | 16-32 | 32 |  |
| CCn1cc(C(=O)O)c(=O)c2cc(F)c(N3CCN(Cc4cccc5cccnc45)CC3)cc21 [ML-77-053] | 64 |  | 1 | 8 | 16 | 4 | 8 |  |  | 64 |  |
| O=C(O)c1cn(C2CC2)c2cc(N3CCN(Cc4cccc5ccsc45)CC3)c(F)cc2c1=O [ML-77-078] |  | 1-2 | <0.12 | 32 | 2-4 | 4-8 | 0.5 | 2 | 2 |  |  |
| CN(C)c1ccc(CN2CCN(c3cc4c(cc3F)c(=O)c(C(=O)O)cn4C3CC3)CC2)cc1 [ML-77-112] | 8 | 1 | 0.0625-0.125 | 1-2 | 0.25-1 | 0.5-1 | 0.125-0.5 | 8-16 |  |  |  |
| CCn1cc(C(=O)O)c(=O)c2cc(F)c(N3CCN(Cc4ccc(N(C)C)cc4)CC3)cc21 [ML-77-113] | 16-32 | 0.25 | 0.125-0.25 | 4-16 | 4-8 | 2 | 2 | 16-32 | >32 | 32 |  |
| O=C(O)c1cn(C2CC2)c2cc(N3CCN(Cc4ccc(-c5ccccc5)cc4)CC3)c(F)cc2c1=O [ML-77-133] | 4 | 2 | 1 | 1 | 2 | 2 | 4 | 2 | 2 |  |  |
| CCn1cc(C(=O)O)c(=O)c2cc(F)c(N3CCN(Cc4ccc(-n5cccc5)cc4)CC3)cc21 [ML-77-136, 7-(4-(4-(1H-pyrrol-1-yl)benzyl)piperazin-1-yl)-1-ethyl-6-fluoro oxo-1-4-dihydroquinoline-3-carboxylic acid] | 64-128 | 4-8 | 0.25-0.5 | 8-32 | 4-8 | 16-32 | 4-8 | 8 | 8-16 | 64-128 |  |
| O=C(O)c1cn(C2CC2)c2cc(N3CCN(Cc4ccc(S(=O)(=O)NCCc5c[nH]c6ccccc56)cc4)CC3)c(F)cc2c1=O [ML-77-138] |  |  | 0.25-0.5 |  |  | 64 |  |  |  |  | MIC (PA01; +PMBN): ≤0.12; MIC (M6; M6, +PMBN, in µg/mL): 1; MIC (Ab17978; Ab17978, +PMBN, in µg/mL): 1 |
| CCn1cc(C(=O)O)c(=O)c2cc(F)c(N3CCN(Cc4ccc(CO)cc4)CC3)cc21 [ML-77-148, 1-ethyl-6-fluoro-7-(4-(4-(hydroxymethyl)benzyl)piperazin-1-yl)-4-oxo-1,4-dihydroquinoline-3-carboxylic acid] | 32 | 8 | 0.5 | 4 | 4-8 | 2 | 4 | 32 | 32 | 32 |  |
| Cc1cc(C)cc(CN2CCN(c3cc4c(cc3F)c(=O)c(C(=O)O)cn4C3CC3)CC2)c1 [ML-77-149] | 32 | 8 | 0.25 | 4-8 | 2-4 | 4 | 1 | 4-8 | 8 |  |  |
| CCn1cc(C(=O)O)c(=O)c2cc(F)c(N3CCN(Cc4cc(C)cc(C)c4)CC3)cc21 [ML-77-150, 7-(4-(3,5-dimethylbenzyl)piperazin-1-yl)-1-ethyl-6-fluoro-4-oxo-1,4-dihydroquinoline-3-carboxylic acid] |  | 4-8 | 0.5-1 | 32-64 | 8 | 16 | 8 | 4-8 | 4-8 |  |  |
| O=C(O)c1cn(C2CC2)c2cc(N3CCN(Cc4ccc(-c5csnn5)cc4)CC3)c(F)cc2c1=O [ML-77-157] |  | 4-8 | <0.12 | 1 | 0.5 | 0.25-0.5 | 0.5 | 4 | 8 |  |  |
| CCn1cc(C(=O)O)c(=O)c2cc(F)c(N3CCN(Cc4ccc(-c5csnn5)cc4)CC3)cc21 [ML-77-161, 7-(4-(4-(1,2,3-thiadiazol-4-yl)benzyl)piperazin-1-yl)-1-ethyl-6-fluoro-4-oxo-1,4-dihydroquinoline-3-carboxylic acid] | 64 | 16 | <0.12 | 4-8 | 8 | 2 | 4 | 8 | 16 | 64 |  |
| Cc1nc(-c2ccc(CN3CCN(c4cc5c(cc4F)c(=O)c(C(=O)O)cn5C4CC4)CC3)cc2)no1 [ML-77-163] | 32 |  | ≤0.12 | 2 | 1-2 | 0.5-1 | 1 |  | 32 |  |  |
| Cc1cc(N2CCN(c3c(F)cc4c(=O)c(C(=O)O)cn5c4c3OC[C@@H]5C)CC2)nc(C(C)C)n1 [ML-83-011, (S)-9-fluoro-10-(4-(2-isopropyl-6-methylpyrimidin-4-yl)piperazin-1-yl)-3-methyl-7-oxo-2,3-dihydro-7H-[1,4]oxazino[2,3,4-ij]quinoline-6-carboxylic acid] |  | 8 | 0.25 | 16-64 | 1 | 16 |  | 16 | 16 | 64 | MIC, VRE12204 (VRE12204; ESKAPE panel, Gram-positive): 8; MIC (MSSA9144; Staphylococcus aureus (MSSA9144), Gram-Positive, read-out: MIC): 0.25 µg/mL (≈ 0.519 µM); MIC (EC12923; EC12923, in µg/mL): 1-8; MIC, EC12923 (EC12923; [3]): 1-8; MIC (EC12923; Escherichia coli (EC12923), Gram-Negative, read-out: MIC): 1 to 8 µg/mL (≈ 2.08 to 16.6 µM); MIC, KP13368 (KP13368; ESKAPE panel, Gram-negative): 64 µg/mL (≈ 133 µM); MIC (KP13368; Klebsiella pneumoniae (KP13368), Gram-Negative, read-out: MIC): 64 µg/mL (≈ 133 µM); MIC, M6 (M6; [3]): 16-64; MIC (M6; Klebsiella pneumoniae (M6), Gram-Negative, read-out: MIC): 16 to 64 µg/mL (≈ 33.2 to 133 µM); MIC, VSE775 (VSE775; ESKAPE panel, Gram-positive): 1; MIC (VSE775; Enterococcus faecalis, Enterococcus (VRE775), Gram-Positive, read-out: MIC): 1 µg/mL (≈ 2.08 µM); MIC (Ab17978; Acinetobacter baumannii (AB17978), Gram-Negative, read-out: MIC): 16 µg/mL (≈ 33.2 µM); MIC, Ab17978 (Ab17978; [3]): 16; MIC, VRE12201 (VRE12201; [4]): 0.5-1; MIC (VRE12201; Enterococcus faecalis, Enterococcus (VRE12201), Gram-Positive, read-out: MIC): 0.5 to 1 µg/mL (≈ 1.04 to 2.08 µM); MIC, EMRSA15 (EMRSA15; [4]): 16; MIC (EMRSA15; Staphylococcus aureus, Staphylococcus aureus (EMRSA15), Gram-Positive (Table 14), read-out: MIC): 16 µg/mL (≈ 33.2 µM); MIC, EMRSA16 (EMRSA16; [4]): 16; MIC (EMRSA16; Staphylococcus aureus (EMRSA16), Gram-Positive (Table 14), read-out: MIC): 16 µg/mL (≈ 33.2 µM) |
| C[C@H]1COc2c(N3CCN(c4ccncc4)CC3)c(F)cc3c(=O)c(C(=O)O)cn1c23 [ML-83-019] |  |  | 64 | 64 |  | 64 |  |  |  |  | MIC (EC12923; EC12923, in µg/mL): 32 |
| COCc1cccc(CN2CCN(c3cc4c(cc3F)c(=O)c(C(=O)O)cn4C3CC3)CC2)c1 [ML-83-036] |  | 16 | 0.5 | 8 | 2-4 | 2 | 2-4 |  |  |  | MIC (EC12923; EC12923, in µg/mL): 4 |
| CCn1cc(C(=O)O)c(=O)c2cc(F)c(N3CCN(Cc4cccc(COC)c4)CC3)cc21 [ML-83-037, 1-ethyl-6-fluoro-7-(4-(3-(methoxymethyl)benzyl)piperazin-1-yl)-4-oxo-1,4-dihydroquinoline-3-carboxylic acid] |  | 16 | 1 | 32 | 16 | 8 | 8 | 64-128 | 64 | 64-128 | MIC (EC12923; EC12923, in µg/mL): 16 |
| COCc1ccc(CN2CCN(c3cc4c(cc3F)c(=O)c(C(=O)O)cn4C3CC3)CC2)cc1 [ML-83-050] |  | 16 | 0.25 | 2 | 1-2 | 1 | 1 | 16-32 |  |  | MIC (EC12923; EC12923, in µg/mL): 1 |

From patent US11746116B2, “Antibiotic resistance breakers” (KING'S COLLEGE LONDON, priority 2017, dated 2023)
